Data: paper PMC12075751 (Nature Communications, 2025)

How the values were obtained:
FABP4 [1] = test: ELISA of serum FABP4, OVX mice, oral gavage study; assay type: in vivo, mouse; conditions: 28 days daily oral gavage, ALD […], BMS 10 mg/kg
PINP = test: ELISA of serum PINP, OVX mice, oral gavage study; assay type: in vivo, mouse; conditions: vs Model
CTX-1 = test: ELISA of serum CTX-1, OVX mice, oral gavage study; assay type: in vivo, mouse
OVX mice [2] = test: H&E staining of bone marrow adipose tissue, OVX mice, oral gavage study; assay type: in vivo, mouse; conditions: BMS vs ALD
FABP4 [3] = test: IHC of FABP4 in tibial bone marrow, OVX mice, oral gavage study; assay type: in vivo, mouse; conditions: BMS vs ALD
human BMSCs = test: Osteoblastic differentiation of BMSCs, Alizarin Red staining; assay type: cell-based; conditions: FABP4 25 or 50 ng/mL, with BMS 5 or 10 μM, 21-day induction
TRAP, c-Fos, NFATc1 = test: Western Blotting of OCs differentiation marker proteins; assay type: cell-based, mouse; conditions: OCs + BMS
OVX mice [4] = assay type: in vivo, mouse
OVX mice [5] = assay type: in vivo, mouse; conditions: BMS 10 mg/kg oral
OVX mice [6] = assay type: in vivo, mouse; conditions: BMS 10 mg/kg oral; remark: listed apart in the source
OVX mice [7] = test: Three-point bending test on femoral midshaft, OVX mice, oral gavage study; assay type: in vivo, mouse; conditions: oral administration of BMS
PK analysis in SD rats = assay type: in vivo, rat
BMMs = test: OCs formation from BMMs; assay type: cell-based, mouse; conditions: 25 ng/mL FABP4 during RANKL induction of BMMs
OCs [8] = test: Bone resorption activity of mature OCs on bovine bone slices; assay type: cell-based, mouse; conditions: SEM
OCs [9] = test: F-actin staining of OCs; assay type: cell-based, mouse; conditions: vs group with only RANKL and M-CSF
[10] = test system: intracellular Ca2+ in OCs; test: Ca2+ concentration detection in OCs; assay type: cell-based, mouse; conditions: OCs + FABP4 (25 ng/mL)
[11] = OVX mice, BMS 10 mg/kg oral, 28 days

With NCCCC(O)(P(=O)(O)O)P(=O)(O)O [ALD, alendronate sodium] the “serum FABP4 levels vs Model group” value (FABP4 [1]) was “significantly reduced”, the “bone formation (serum PINP)” value (PINP) was “little effect” and the “bone resorption (serum CTX-1)” value (CTX-1) was “reduced”. For the same molecule, the “bone marrow fat tissue (H&E staining)” value (OVX mice [2]) was “no significant difference” and the “FABP4 protein expression in bone marrow (IHC)” value (FABP4 [3]) was “no significant difference”.

For CCc1c(-c2ccccc2)c(-c2ccccc2)nn1-c1ccccc1-c1cccc(OCC(=O)O)c1 [BMS309403], the “osteogenic differentiation capacity of BMSCs (Alizarin Red staining)” value (human BMSCs) was “neither the FABP4 protein nor its inhibitor affected”, the “TRAP, c-Fos, and NFATc1 protein levels” value (TRAP, c-Fos, NFATc1) was “suppression” and the “bone resorption (serum CTX-1)” value (CTX-1) was “reduced”. The “efficacy in femur compared to ALD” value (OVX mice [4]; BMS 10 mg/kg, 7.7 times the ALD dose ([…]), oral) was “did not achieve the same efficacy”, the “femoral BMD” value (OVX mice [4]; [11]) was “increased” and the “trabecular thickness (Tb.Th), distal femur” value (OVX mice [4]; [11]) was “increased”. The “trabecular number (Tb.N), distal femur” value (OVX mice [4]; OVX mice, BMS 10 mg/kg oral, 28 days, listed as BMS) was “increased”, the “BMD, L5 lumbar vertebra” value (OVX mice [5]) was “significantly improving” and the “Tb.N, L5 lumbar vertebra” value (OVX mice [5]) was “significantly improving”. For the same molecule, the “Tb.Th, L5 lumbar vertebra” value (OVX mice [5]) was “significantly improving”, the “bone volume/total volume (BV/TV), L5 lumbar vertebra” value (OVX mice [5]) was “significantly improving” and the “trabecular separation (Tb.Sp), L5 lumbar vertebra” value (OVX mice [5]) was “significantly improving”. For the same molecule, the “bone resorption in vivo (TRAP staining of tibia sections)” value (OVX mice [6]) was “inhibitory effect”, the “bone stiffness, femoral midshaft” value (OVX mice [7]) was “improved” and the “elastic modulus, femoral midshaft” value (OVX mice [7]) was “improved”. For the same molecule, the Cl (PK analysis in SD rats; IV 2.0 mg/kg, G1-Mean (n = 3)) was 691.37 mL/h/kg, the “MRT(0-∞)” value (PK analysis in SD rats; IV 2.0 mg/kg, G1-Mean (n = 3)) was 50.4 min and the Vz (PK analysis in SD rats; IV 2.0 mg/kg, G1-Mean (n = 3)) was 1734.16 mL/kg. For the same molecule, the Cmax (PK analysis in SD rats; IV 2.0 mg/kg, G1-Mean (n = 3), listed as BMS, 2 mg/kg) was 7094.95 ng/mL, the “AUC(0-t)” value (PK analysis in SD rats; PO 10.0 mg/kg, G2-Mean (n = 3)) was 5527.36 ng·h/mL and the T1/2 (PK analysis in SD rats; PO 10.0 mg/kg, G2-Mean (n = 3), listed as BMS, 10 mg/kg) was 3.16 h.

B1: FABP4: recombinant FABP4 protein (MCE, cat#HY-P70293) (protein, UniProt P04117 2-132, looked up)
Fatty acid-binding protein, …: CDAFVGTWKLVSSENFDDYMKEVGVGFATRKVAGMAKPNMIISVNGDLVTIRSESTFKNTEISFKLGVEFDEITADDRKVKSIITLDGGALVQVQKWDGKSTTIKRKRDGDKLVVECVMKGVTSTRVYERA
For B1, the “osteogenic differentiation capacity of BMSCs (Alizarin Red staining)” value (human BMSCs) was “neither the FABP4 protein nor its inhibitor affected”, the “formation of OCs (TRAP staining)” value (BMMs) was “significantly promoted the formation of OCs” and the “bone resorption by mature OCs on bovine bone slices” value (OCs [8]) was “enhanced bone resorption”. For the same molecule, the “F-actin / bone skeleton structure of OCs” value (OCs [9]) was “more regular and distinct bone skeleton structure with abundant F-actin” and the “intracellular calcium levels in OCs” value [10] was “significant increase”.
